14 compounds from ChEMBL document CHEMBL1909046, “DrugMatrix in vitro pharmacology data” can be followed below.

The structures appear in SMILES notation. pIC50, pKi: −log10 of the molar value.

The target of one experiment is T1, Progesterone receptor (Bos taurus, UniProt Q690N0).
T1 sequence (Q690N0 whole entry): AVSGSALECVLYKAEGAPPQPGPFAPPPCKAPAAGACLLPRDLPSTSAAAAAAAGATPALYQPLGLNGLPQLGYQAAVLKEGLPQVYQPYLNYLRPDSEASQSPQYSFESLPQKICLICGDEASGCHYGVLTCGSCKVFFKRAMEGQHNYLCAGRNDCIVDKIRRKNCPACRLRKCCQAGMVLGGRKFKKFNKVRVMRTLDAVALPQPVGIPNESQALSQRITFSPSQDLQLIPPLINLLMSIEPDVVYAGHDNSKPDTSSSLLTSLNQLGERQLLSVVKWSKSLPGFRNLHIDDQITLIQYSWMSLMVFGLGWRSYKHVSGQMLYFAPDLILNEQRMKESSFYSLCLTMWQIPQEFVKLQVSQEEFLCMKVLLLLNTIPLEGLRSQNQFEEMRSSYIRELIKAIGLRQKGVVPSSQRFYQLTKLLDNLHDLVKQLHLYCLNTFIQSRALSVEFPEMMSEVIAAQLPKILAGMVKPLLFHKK
The experiment can be described thus: DRUGMATRIX: Progesterone radioligand binding (ligand: [3H] R-5020). The format is tissue-based, Uterus. To be noted: Not Active = under 50% inhibition at 10 µM.

Experiment [1] has as its target T2, Vasoactive intestinal polypeptide receptor 1 (Homo sapiens, UniProt P32241). Note: in other assays of this panel Not Active means under 50% inhibition at 10 µM.
T2 sequence (P32241 whole entry): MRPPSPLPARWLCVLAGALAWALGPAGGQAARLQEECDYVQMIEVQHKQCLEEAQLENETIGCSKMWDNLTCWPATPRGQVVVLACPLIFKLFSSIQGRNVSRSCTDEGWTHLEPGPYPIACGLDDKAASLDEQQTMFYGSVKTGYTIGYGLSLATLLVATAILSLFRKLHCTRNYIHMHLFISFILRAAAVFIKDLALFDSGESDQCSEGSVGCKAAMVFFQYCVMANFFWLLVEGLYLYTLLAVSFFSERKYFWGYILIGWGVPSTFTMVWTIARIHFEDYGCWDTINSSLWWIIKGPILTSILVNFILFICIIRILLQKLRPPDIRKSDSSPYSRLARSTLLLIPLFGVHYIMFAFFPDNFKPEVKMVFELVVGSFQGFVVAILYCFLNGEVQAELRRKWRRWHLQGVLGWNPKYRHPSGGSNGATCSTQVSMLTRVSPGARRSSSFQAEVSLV
The experiment is classed as cell membranes, Membrane. To be noted: ht-29.

A short description of experiment [2]: DRUGMATRIX: Glutamate, NMDA, Phencyclidine radioligand binding (ligand: [3H] TCP). The experiment is classed as cell membranes, Rattus norvegicus, Wistar, Cerebral cortex, Membrane. The settings on record: Not Active = under 50% inhibition at 10 µM.
For the next experiment, the target named is D(1A) dopamine receptor (Homo sapiens, UniProt P21728). The experiment can be described thus: DRUGMATRIX: Dopamine D1 radioligand binding (ligand: [3H] SCH-23390). The experiment is classed as cell membranes, CHO, Membrane. The settings on record: cho; Not Active = under 50% inhibition at 10 µM.
The target of experiment [3] is T3, Receptor-type tyrosine-protein phosphatase C (Homo sapiens, UniProt P08575).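 Note: inhibition of CD45 enzyme activity measured using DiFMUP as substrate; in other assays of this panel Not Active means under 50% inhibition at 10 µM.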
T3 sequence (P08575 whole entry): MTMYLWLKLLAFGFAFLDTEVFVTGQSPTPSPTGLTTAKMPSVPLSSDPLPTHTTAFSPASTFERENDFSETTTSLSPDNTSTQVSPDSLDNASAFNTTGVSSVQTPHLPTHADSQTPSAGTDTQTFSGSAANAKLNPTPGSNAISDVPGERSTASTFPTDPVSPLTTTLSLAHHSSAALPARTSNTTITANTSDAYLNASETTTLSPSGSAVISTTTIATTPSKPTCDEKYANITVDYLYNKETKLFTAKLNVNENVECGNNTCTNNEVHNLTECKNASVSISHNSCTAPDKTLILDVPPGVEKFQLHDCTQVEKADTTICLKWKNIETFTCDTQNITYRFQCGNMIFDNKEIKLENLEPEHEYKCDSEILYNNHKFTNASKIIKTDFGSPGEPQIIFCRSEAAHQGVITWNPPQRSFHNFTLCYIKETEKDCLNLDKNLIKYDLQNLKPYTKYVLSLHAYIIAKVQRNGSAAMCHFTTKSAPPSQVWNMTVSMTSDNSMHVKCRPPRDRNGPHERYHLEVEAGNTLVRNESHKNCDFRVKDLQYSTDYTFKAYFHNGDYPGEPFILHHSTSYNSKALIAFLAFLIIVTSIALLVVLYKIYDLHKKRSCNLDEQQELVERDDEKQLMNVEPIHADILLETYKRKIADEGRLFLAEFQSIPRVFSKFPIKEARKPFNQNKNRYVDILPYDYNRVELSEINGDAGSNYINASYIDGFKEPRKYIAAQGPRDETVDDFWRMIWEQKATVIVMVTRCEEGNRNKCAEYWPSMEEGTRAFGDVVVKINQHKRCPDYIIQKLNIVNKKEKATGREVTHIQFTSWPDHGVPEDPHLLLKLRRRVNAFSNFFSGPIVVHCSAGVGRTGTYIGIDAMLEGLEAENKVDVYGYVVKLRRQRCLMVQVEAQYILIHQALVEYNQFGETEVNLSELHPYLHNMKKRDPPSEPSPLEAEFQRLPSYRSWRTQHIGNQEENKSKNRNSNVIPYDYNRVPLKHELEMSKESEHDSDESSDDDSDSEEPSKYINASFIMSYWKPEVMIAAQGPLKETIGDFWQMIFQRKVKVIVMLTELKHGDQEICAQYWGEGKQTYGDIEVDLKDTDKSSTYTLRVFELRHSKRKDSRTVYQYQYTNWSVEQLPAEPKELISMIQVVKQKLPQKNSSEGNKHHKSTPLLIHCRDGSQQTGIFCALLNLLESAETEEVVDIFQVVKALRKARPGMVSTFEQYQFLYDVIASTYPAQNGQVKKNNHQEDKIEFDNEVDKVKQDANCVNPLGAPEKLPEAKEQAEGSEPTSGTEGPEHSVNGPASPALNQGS
Details: species or system Escherichia coli.

Experiment [4] addresses Sodium-dependent noradrenaline transporter (Homo sapiens, UniProt P23975). The experiment can be described thus: DRUGMATRIX: Norepinephrine Transporter radioligand binding (ligand: [125I] RTI-55). The experiment is classed as cell membranes, MDCK, Membrane. The settings on record: mdck; Not Active = under 50% inhibition at 10 µM.
In experiment [5] the target is C-C chemokine receptor type 2 (Homo sapiens, UniProt P41597). The format is cell membranes, CHO-K1, Membrane. The settings on record: cho-k1. Note: in other assays of this panel Not Active means under 50% inhibition at 10 µM.
Sequence of C-C chemokine receptor type 2 (P41597 whole entry): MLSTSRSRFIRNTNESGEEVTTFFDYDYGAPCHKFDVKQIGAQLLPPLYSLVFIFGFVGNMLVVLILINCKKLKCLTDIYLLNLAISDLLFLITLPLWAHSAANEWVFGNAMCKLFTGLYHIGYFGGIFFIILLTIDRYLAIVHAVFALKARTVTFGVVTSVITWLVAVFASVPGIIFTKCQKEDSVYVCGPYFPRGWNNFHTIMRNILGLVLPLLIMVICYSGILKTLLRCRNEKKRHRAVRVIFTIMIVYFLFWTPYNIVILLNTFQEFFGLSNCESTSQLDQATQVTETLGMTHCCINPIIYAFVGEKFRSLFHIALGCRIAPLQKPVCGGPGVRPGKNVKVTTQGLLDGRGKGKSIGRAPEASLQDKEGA

Sequence of D(1A) dopamine receptor (P21728 whole entry): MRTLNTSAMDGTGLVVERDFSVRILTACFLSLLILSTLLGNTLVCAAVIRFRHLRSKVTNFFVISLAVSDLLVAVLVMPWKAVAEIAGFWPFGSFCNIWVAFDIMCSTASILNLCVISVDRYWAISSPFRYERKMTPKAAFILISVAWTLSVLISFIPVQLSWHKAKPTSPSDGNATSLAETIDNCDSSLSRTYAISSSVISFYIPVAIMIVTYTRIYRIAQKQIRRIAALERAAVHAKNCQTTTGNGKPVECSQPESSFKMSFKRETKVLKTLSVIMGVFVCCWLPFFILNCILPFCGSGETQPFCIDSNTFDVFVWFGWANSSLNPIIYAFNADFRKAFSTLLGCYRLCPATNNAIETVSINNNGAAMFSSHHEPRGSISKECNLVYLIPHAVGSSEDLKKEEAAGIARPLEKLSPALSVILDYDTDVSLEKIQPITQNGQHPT
Sequence of Sodium-dependent noradrenaline transporter (P23975 whole entry): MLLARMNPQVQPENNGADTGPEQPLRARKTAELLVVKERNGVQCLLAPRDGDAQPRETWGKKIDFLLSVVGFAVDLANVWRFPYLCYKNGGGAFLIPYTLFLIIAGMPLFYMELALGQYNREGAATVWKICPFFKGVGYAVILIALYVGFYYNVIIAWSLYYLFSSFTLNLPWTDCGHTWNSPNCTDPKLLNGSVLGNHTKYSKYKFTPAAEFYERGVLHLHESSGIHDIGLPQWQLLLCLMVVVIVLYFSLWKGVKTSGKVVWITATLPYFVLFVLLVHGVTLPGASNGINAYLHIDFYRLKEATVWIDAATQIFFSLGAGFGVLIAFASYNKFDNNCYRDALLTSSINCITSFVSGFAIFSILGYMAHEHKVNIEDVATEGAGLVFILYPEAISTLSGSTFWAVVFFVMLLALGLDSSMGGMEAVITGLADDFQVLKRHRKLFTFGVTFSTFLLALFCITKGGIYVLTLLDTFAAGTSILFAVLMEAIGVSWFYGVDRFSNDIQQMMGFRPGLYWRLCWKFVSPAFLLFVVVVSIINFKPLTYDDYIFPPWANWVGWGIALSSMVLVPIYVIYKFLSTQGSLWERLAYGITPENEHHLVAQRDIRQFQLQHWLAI

Turning to `C=C(C)[C@H]1Cc2c(ccc3c2O[C@@H]2COc4cc(OC)c(OC)cc4[C@@H]2C3=O)O1` [ROTENONE], the IC50 entry (at Progesterone receptor; in experiment [1]; in experiment [2]; at D(1A) dopamine receptor; in experiment [3]; in experiment [4]) was “Not Active” each time. Also, the IC50 entry in experiment [5] is recorded as “Not Active”. For the same compound, the Ki entry in experiment [2] is listed as “Not Active”.
For the compound `C#CCN(C)[C@H](C)Cc1ccccc1` [SELEGILINE], the IC50 entry (at Progesterone receptor; in experiment [1]; in experiment [2]; at D(1A) dopamine receptor; in experiment [3]; in experiment [4]) was “Not Active” throughout. In addition, the IC50 entry in experiment [5] was “Not Active”. Besides, the Ki entry in experiment [2] was “Not Active”.
Take `CO[C@H]1C[C@@H]2CC[C@@H](C)[C@@](O)(O2)C(=O)C(=O)N2CCCC[C@H]2C(=O)O[C@H]([C@H](C)C[C@@H]2CC[C@@H](O)[C@H](OC)C2)CC(=O)[C@H](C)/C=C(\C)[C@@H](O)[C@@H](OC)C(=O)[C@H](C)C[C@H](C)/C=C/C=C/C=C/1C` [SIROLIMUS]: the IC50 entry (on Progesterone receptor; in experiment [1]; in experiment [2]; on D(1A) dopamine receptor; in experiment [3]; in experiment [4]) was “Not Active” in each case. In addition, the IC50 result in experiment [5] is listed as “Not Active”. The Ki entry in experiment [2] is recorded as “Not Active”.
Turning to `CN[C@@H]1[C@H](O)[C@H](NC)[C@H]2O[C@@]3(O)C(=O)C[C@@H](C)O[C@H]3O[C@@H]2[C@H]1O` [SPECTINOMYCIN], the IC50 result (at Progesterone receptor; in experiment [1]; in experiment [2]; at D(1A) dopamine receptor; in experiment [3]; in experiment [4]) was “Not Active” throughout. Besides, the IC50 result in experiment [5] is “Not Active”. Moreover, the Ki entry in experiment [2] was “Not Active”.
As for `Nc1ccc(S(=O)(=O)Nc2ncccn2)cc1` [SULFADIAZINE], the IC50 result (at Progesterone receptor; in experiment [1]; in experiment [2]; on D(1A) dopamine receptor; in experiment [3]; in experiment [4]) was “Not Active” throughout. In experiment [5], the IC50 entry is given as “Not Active”. For the same compound, the Ki entry in experiment [2] is listed as “Not Active”.
As for `COc1ncnc(NS(=O)(=O)c2ccc(N)cc2)c1OC` [SULFADOXINE], the IC50 entry (at Progesterone receptor; in experiment [1]; in experiment [2]; at D(1A) dopamine receptor; in experiment [3]; in experiment [4]) was “Not Active” in each case. Besides, the IC50 result in experiment [5] is “Not Active”. Further, the Ki result in experiment [2] is given as “Not Active”.
`Nc1ccc(S(=O)(=O)Nc2nccs2)cc1` [SULFATHIAZOLE]: the IC50 result (on Progesterone receptor; in experiment [1]; in experiment [2]; at D(1A) dopamine receptor; in experiment [3]; in experiment [4]) was “Not Active” throughout. Also, in experiment [5], the IC50 result is “Not Active”. Moreover, in experiment [2], the Ki result is given as “Not Active”.
For orientation: pIC50 means the negative decadic logarithm of the IC50, by convention in mol/L. As usually defined, the pKi is −log10 of the Ki, conventionally taken in molar units. Regarding `C[C@]12CC[C@H]3[C@@H](CCC4=CC(=O)CC[C@@]43C)[C@@H]1CC[C@@H]2O` [TESTOSTERONE], the pIC50 on Progesterone receptor (read-out: IC50) was 5.71. The pKi at Progesterone receptor (read-out: Ki) was 6.60. Further, the IC50 entry (in experiment [1]; in experiment [2]; on D(1A) dopamine receptor; in experiment [3]; in experiment [4]; in experiment [5]) was “Not Active” in each case. In experiment [2], the Ki entry is on record as “Not Active”.
Turning to `CC(C)(C)NC[C@H](O)COc1nsnc1N1CCOCC1` [TIMOLOL], the IC50 result (on Progesterone receptor; in experiment [1]; in experiment [2]; at D(1A) dopamine receptor; in experiment [3]; in experiment [4]) was “Not Active” throughout. The IC50 result in experiment [5] is “Not Active”. The Ki entry in experiment [2] is “Not Active”.
As for `CCS(=O)(=O)CCn1c([N+](=O)[O-])cnc1C` [TINIDAZOLE], the IC50 entry (on Progesterone receptor; in experiment [1]; in experiment [2]; at D(1A) dopamine receptor; in experiment [3]; in experiment [4]) was “Not Active” each time. Besides, the IC50 entry in experiment [5] is “Not Active”. Also, the Ki result in experiment [2] is on record as “Not Active”.
Consider `C[C@@H]1C[C@H]2[C@@H]3CCC4=CC(=O)C=C[C@]4(C)C3=CC[C@]2(C)[C@H]1C(=O)CN1CCN(c2cc(N3CCCC3)nc(N3CCCC3)n2)CC1` [TIRILAZAD], for which the IC50 result (at Progesterone receptor; in experiment [1]; in experiment [2]; at D(1A) dopamine receptor; in experiment [3]; in experiment [4]) was “Not Active” throughout. For the same compound, in experiment [5], the IC50 entry is “Not Active”. The Ki result in experiment [2] was “Not Active”.
Take `NC[C@H]1O[C@H](O[C@H]2[C@H](O)[C@@H](O[C@H]3O[C@H](CO)[C@@H](O)[C@H](N)[C@H]3O)[C@H](N)C[C@@H]2N)[C@H](N)C[C@@H]1O` [TOBRAMYCIN]: the IC50 result (on Progesterone receptor; in experiment [1]; in experiment [2]; on D(1A) dopamine receptor; in experiment [3]; in experiment [4]) was “Not Active” in each case. The IC50 entry in experiment [5] is on record as “Not Active”. In addition, the Ki result in experiment [2] is “Not Active”.
Consider `O=C(O)C(Cl)(Cl)Cl` [TRICHLOROACETIC ACID], for which the IC50 entry (on Progesterone receptor; in experiment [1]; in experiment [2]; at D(1A) dopamine receptor; in experiment [3]; in experiment [4]) was “Not Active” throughout. The IC50 entry in experiment [5] is given as “Not Active”. For the same compound, the Ki result in experiment [2] is “Not Active”.
With `COc1ccc(CN2CCNCC2)c(OC)c1OC` [TRIMETAZIDINE], the IC50 result (on Progesterone receptor; in experiment [1]; in experiment [2]; at D(1A) dopamine receptor; in experiment [3]; in experiment [4]) was “Not Active” in each case. For the same compound, the IC50 entry in experiment [5] is listed as “Not Active”. In addition, the Ki result in experiment [2] is recorded as “Not Active”.
